For one assay, the target named is T1, Adenosine receptor A3 (Homo sapiens, UniProt P0DMS8).
T1 sequence (P0DMS8 whole entry): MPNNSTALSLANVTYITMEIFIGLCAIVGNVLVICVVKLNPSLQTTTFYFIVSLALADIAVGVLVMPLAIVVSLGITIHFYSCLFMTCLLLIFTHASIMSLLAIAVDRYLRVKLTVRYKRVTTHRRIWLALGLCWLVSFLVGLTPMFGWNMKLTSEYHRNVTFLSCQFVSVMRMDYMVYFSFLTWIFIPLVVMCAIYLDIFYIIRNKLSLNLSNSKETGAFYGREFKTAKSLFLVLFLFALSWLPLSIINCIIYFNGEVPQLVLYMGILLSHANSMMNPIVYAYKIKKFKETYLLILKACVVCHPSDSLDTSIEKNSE

For assay [1], the target named is T2, Alpha-2A adrenergic receptor (Homo sapiens, UniProt P08913).
T2 sequence (P08913 whole entry): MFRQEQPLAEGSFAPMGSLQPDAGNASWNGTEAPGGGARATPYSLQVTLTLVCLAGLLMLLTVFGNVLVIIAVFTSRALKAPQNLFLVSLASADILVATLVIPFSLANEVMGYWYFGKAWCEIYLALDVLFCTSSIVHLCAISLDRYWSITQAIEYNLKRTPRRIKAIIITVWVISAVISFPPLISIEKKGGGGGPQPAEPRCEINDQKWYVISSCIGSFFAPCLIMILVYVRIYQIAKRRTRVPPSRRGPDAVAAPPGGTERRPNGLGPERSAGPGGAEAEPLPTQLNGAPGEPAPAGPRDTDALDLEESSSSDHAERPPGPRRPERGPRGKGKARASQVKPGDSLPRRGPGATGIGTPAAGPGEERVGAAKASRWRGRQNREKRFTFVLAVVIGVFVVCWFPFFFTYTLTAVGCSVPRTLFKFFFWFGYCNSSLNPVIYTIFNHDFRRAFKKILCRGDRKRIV
In kind it is functional, cell-based.

The target of assay [2] is T3, Type-1 angiotensin II receptor (Homo sapiens, UniProt P30556).
T3 sequence (P30556 whole entry): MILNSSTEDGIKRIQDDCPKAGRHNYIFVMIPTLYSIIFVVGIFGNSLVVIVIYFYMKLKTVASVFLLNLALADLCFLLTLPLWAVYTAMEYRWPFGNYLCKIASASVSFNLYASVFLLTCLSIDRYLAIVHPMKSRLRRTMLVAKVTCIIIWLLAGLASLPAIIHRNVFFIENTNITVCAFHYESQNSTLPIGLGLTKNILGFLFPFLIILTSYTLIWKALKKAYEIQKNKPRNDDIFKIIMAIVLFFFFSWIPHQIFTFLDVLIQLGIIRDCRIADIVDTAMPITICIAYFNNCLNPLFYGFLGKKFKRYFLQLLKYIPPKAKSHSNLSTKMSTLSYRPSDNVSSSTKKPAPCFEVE

A further assay has as its target T4, B2 bradykinin receptor (Homo sapiens, UniProt P30411).
T4 sequence (P30411 whole entry): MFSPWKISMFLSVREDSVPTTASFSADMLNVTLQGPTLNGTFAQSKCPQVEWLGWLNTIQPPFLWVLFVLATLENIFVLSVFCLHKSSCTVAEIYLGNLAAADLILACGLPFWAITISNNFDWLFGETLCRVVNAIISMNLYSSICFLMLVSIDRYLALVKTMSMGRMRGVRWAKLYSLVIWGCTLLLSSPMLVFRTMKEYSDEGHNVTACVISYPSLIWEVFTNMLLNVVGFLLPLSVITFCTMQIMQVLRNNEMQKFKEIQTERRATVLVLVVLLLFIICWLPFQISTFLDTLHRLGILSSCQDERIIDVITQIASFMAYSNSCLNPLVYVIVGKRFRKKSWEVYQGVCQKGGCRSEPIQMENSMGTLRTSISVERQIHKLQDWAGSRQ

Assay [3] has as its target T5, Muscarinic acetylcholine receptor M2 (Homo sapiens, UniProt P08172).
T5 sequence (P08172 whole entry): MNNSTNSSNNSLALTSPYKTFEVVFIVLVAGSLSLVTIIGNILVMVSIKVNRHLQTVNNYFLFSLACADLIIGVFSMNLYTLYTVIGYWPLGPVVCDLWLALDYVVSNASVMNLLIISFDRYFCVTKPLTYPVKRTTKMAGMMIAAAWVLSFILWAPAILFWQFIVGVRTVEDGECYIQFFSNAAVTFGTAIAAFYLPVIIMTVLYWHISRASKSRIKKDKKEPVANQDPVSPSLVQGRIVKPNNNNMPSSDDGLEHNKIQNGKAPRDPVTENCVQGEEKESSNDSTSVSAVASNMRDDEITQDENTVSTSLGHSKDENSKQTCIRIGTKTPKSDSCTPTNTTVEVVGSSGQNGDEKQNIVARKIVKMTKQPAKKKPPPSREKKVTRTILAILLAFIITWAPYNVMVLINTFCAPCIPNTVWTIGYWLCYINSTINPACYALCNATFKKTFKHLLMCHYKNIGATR
In kind it is functional, cell-based.

A further assay has as its target Histamine H2 receptor (Homo sapiens, UniProt P25021). In kind it is functional, cell-based.
The next assay has as its target Motilin receptor (Homo sapiens, UniProt O43193).
The next assay has as its target T6, Glucocorticoid receptor (Homo sapiens, UniProt P04150).
T6 sequence (P04150 whole entry): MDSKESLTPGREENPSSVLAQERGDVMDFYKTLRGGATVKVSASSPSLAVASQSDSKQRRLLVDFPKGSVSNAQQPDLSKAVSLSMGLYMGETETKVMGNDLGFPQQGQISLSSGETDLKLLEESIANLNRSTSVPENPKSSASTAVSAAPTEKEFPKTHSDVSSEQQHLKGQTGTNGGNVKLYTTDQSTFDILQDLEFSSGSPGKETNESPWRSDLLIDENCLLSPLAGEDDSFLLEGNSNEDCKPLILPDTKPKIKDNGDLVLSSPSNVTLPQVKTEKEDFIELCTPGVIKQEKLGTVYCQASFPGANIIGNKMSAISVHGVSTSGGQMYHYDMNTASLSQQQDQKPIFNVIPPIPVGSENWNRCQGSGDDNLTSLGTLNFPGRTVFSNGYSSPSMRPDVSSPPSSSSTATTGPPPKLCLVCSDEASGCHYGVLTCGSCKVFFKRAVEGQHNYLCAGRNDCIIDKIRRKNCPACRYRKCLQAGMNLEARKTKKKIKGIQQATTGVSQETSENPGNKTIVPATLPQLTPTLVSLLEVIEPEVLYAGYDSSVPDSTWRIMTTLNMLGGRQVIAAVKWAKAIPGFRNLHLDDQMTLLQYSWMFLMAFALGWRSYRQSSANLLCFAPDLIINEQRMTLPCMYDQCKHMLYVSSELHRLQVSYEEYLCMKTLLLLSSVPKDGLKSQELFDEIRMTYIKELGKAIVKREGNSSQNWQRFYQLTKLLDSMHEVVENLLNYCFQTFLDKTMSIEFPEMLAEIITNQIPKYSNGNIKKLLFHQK

The target in assay [4] is Kappa-type opioid receptor (Homo sapiens, UniProt P41145).
Kappa-type opioid receptor, sequence (P41145 whole entry): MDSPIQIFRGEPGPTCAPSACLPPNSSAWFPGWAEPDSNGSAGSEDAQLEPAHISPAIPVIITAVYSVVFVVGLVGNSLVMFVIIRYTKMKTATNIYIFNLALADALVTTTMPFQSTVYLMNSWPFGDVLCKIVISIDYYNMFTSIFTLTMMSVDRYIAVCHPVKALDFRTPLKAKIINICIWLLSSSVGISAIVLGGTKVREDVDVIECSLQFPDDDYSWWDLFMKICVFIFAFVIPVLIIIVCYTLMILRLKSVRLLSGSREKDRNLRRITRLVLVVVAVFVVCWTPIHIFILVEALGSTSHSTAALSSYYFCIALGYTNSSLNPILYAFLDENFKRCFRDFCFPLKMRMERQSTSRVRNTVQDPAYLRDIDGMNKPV

For orientation: AC50 means the midpoint of the concentration-response curve, whichever way the signal moves. Low values mean greater potency, high ones weaker potency.
Further: assay procedure not described here.

Motilin receptor, sequence (O43193 whole entry): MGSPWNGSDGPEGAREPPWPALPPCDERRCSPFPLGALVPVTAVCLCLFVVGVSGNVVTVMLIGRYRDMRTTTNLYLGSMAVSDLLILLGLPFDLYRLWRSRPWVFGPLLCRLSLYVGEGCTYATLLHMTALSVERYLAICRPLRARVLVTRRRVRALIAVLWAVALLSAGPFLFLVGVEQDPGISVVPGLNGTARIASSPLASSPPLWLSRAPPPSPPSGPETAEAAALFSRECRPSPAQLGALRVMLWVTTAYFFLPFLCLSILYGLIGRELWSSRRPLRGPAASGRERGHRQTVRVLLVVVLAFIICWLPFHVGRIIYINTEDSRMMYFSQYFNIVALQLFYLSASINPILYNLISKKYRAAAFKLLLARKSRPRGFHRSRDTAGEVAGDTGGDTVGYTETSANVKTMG
Histamine H2 receptor, sequence (P25021 whole entry): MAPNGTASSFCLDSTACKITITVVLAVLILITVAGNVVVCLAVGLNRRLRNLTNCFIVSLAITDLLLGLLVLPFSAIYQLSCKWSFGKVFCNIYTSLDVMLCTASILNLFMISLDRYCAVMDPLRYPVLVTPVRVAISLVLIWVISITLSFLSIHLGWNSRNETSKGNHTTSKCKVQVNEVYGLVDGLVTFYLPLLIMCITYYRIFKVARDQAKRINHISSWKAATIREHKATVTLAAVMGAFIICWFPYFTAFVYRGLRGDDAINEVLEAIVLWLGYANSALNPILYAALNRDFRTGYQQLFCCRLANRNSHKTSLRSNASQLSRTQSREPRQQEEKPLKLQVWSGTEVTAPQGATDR

For `COc1ccc(-c2noc(CC(=O)O)c2-c2ccc(OC)cc2)cc1` [MOFEZOLAC], the AC50 (at Adenosine receptor A3; in assay [1]; in assay [2]; at B2 bradykinin receptor; in assay [3]; at Histamine H2 receptor) was above 30 µM throughout. The AC50 (on Motilin receptor; at Glucocorticoid receptor; in assay [4]) was above 30 µM each time.

For the compound `C/C(=C\C(=O)OCCCCCCCCC(=O)O)C[C@@H]1OC[C@H](C[C@@H]2O[C@H]2[C@@H](C)[C@H](C)O)[C@@H](O)[C@H]1O` [MUPIROCIN], the AC50 (at Adenosine receptor A3; in assay [1]; in assay [2]; at B2 bradykinin receptor; in [3]; on Histamine H2 receptor) was above 10 µM in each case. The AC50 (on Motilin receptor; at Glucocorticoid receptor; in assay [4]) was above 10 µM each time.

For the compound `O=C1CN=C(c2ccccc2)c2cc([N+](=O)[O-])ccc2N1` [NITRAZEPAM], the AC50 at Adenosine receptor A3 was above 10 µM; in assay [1], above 10 µM; in assay [2] it was above 30 µM; at B2 bradykinin receptor, above 10 µM; in assay [3], above 10 µM; at Histamine H2 receptor it was above 30 µM. Besides, the AC50 (at Motilin receptor; on Glucocorticoid receptor; in assay [4]) was above 10 µM each time.

With `C#CCOc1ccc(N)cc1C(=O)NCCCC` [PARSALMIDE], the AC50 (at Adenosine receptor A3; in assay [1]; in assay [2]; at B2 bradykinin receptor; in assay [3]; on Histamine H2 receptor) was above 30 µM in each case. Besides, the AC50 (on Motilin receptor; on Glucocorticoid receptor; in [4]) was above 30 µM throughout.

In the case of `COc1ccc2nc3cc(Cl)ccc3c(Nc3cc(CN4CCCC4)c(O)c(CN4CCCC4)c3)c2n1` [PYRONARIDINE], the AC50 on Adenosine receptor A3 is 15 µM; in [1], above 30 µM; in [2], above 30 µM; at B2 bradykinin receptor it was above 30 µM; in assay [3], above 30 µM; on Histamine H2 receptor, above 30 µM. Also, the AC50 was above 30 µM at Motilin receptor, above 30 µM on Glucocorticoid receptor and 15 µM in assay [4].

With `CC1=C(C)C(=O)C(C(CCCCCC(=O)O)c2ccccc2)=C(C)C1=O` (stereo unspecified) [SERATRODAST], the AC50 (on Adenosine receptor A3; in assay [1]; in assay [2]; at B2 bradykinin receptor; in assay [3]; on Histamine H2 receptor) was above 30 µM each time. Also, the AC50 (at Motilin receptor; on Glucocorticoid receptor; in assay [4]) was above 30 µM throughout.

In the case of `CCN(CC)CCNC(=O)c1cc(S(C)(=O)=O)ccc1OC` [TIAPRIDE], the AC50 (on Adenosine receptor A3; in [1]; in [2]; at B2 bradykinin receptor; in assay [3]; on Histamine H2 receptor) was above 30 µM each time. The AC50 (at Motilin receptor; on Glucocorticoid receptor; in assay [4]) was above 30 µM throughout.

In the case of `NC1CCN(c2nc3c(cc2F)c(=O)c(C(=O)O)cn3-c2ccc(F)cc2F)C1` (stereo unspecified) [TOSUFLOXACIN], the half-maximal activity concentration (AC50) (on Adenosine receptor A3; in [1]; in assay [2]; on B2 bradykinin receptor; in [3]; on Histamine H2 receptor) was above 30 µM throughout. Moreover, the AC50 (on Motilin receptor; at Glucocorticoid receptor; in assay [4]) was above 30 µM in each case.

Turning to `CCC(COC(=O)c1cc(OC)c(OC)c(OC)c1)(c1ccccc1)N(C)C` (stereo unspecified) [TRIMEBUTINE], the AC50 was 30 µM on Adenosine receptor A3; above 30 µM in [1]; above 30 µM in [2]; above 30 µM on B2 bradykinin receptor; above 30 µM in assay [3]; above 30 µM at Histamine H2 receptor. In addition, the AC50 at Motilin receptor is above 30 µM; on Glucocorticoid receptor it was above 30 µM; in assay [4], 0.19 µM.

The values above are taken from ChEMBL document CHEMBL5291721, “A preclinical secondary pharmacology resource illuminates target-adverse drug reaction associations of marketed drugs” (Nat Commun, 2023).
